From PubChem BioAssay (NCI)
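Assay format: 96-well plates, 48-hour exposure. At the GI50, growth is halved. TGI: total growth inhibition.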

Legend:
Experiment in all cases: inhibition of tumour cell growth, NCI panel, 48 h
HCT-116 colon = test system: HCT-116 colon
SK-MEL-2 melanoma = test system: SK-MEL-2 melanoma
SF-295 CNS = test system: SF-295 CNS
PC-3 prostate = test system: PC-3 prostate
NCI-H226 lung = test system: NCI-H226 lung
HS 578T breast = test system: HS 578T breast
SR leukemia = test system: SR leukemia
CCRF-CEM leukemia = test system: CCRF-CEM leukemia
OVCAR-4 ovarian = test system: OVCAR-4 ovarian
SW-620 colon = test system: SW-620 colon
SK-MEL-28 melanoma = test system: SK-MEL-28 melanoma
OVCAR-8 ovarian = test system: OVCAR-8 ovarian
OVCAR-3 ovarian = test system: OVCAR-3 ovarian
NCI-H23 lung = test system: NCI-H23 lung
TK-10 renal = test system: TK-10 renal
SF-539 CNS = test system: SF-539 CNS
UO-31 renal = test system: UO-31 renal
NCI/ADR-RES ovarian = test system: NCI/ADR-RES ovarian
RPMI-8226 leukemia = test system: RPMI-8226 leukemia
786-0 renal = test system: 786-0 renal
COLO 205 colon = test system: COLO 205 colon
SK-MEL-5 melanoma = test system: SK-MEL-5 melanoma
K-562 leukemia = test system: K-562 leukemia
LOX IMVI melanoma = test system: LOX IMVI melanoma
OVCAR-5 ovarian = test system: OVCAR-5 ovarian
MDA-MB-231 breast = test system: MDA-MB-231 breast
U251 CNS = test system: U251 CNS
SN12C renal = test system: SN12C renal
SK-OV-3 ovarian = test system: SK-OV-3 ovarian
EKVX NSCLC = test system: EKVX NSCLC
HCT-15 colon = test system: HCT-15 colon
SNB-75 CNS = test system: SNB-75 CNS
NCI-H460 lung = test system: NCI-H460 lung
HCC-2998 colon = test system: HCC-2998 colon
SNB-19 CNS = test system: SNB-19 CNS
NCI-H522 lung = test system: NCI-H522 lung
A549 NSCLC = test system: A549 NSCLC
UACC-257 melanoma = test system: UACC-257 melanoma
CAKI-1 renal = test system: CAKI-1 renal
MALME-3M melanoma = test system: MALME-3M melanoma
HT29 colon = test system: HT29 colon
MCF7 breast = test system: MCF7 breast
HL-60(TB) leukemia = test system: HL-60(TB) leukemia
T-47D breast = test system: T-47D breast
KM12 colon = test system: KM12 colon
HOP-62 NSCLC = test system: HOP-62 NSCLC
MDA-MB-435 = test system: MDA-MB-435
ACHN renal = test system: ACHN renal
DU-145 prostate = test system: DU-145 prostate
A498 renal = test system: A498 renal
UACC-62 melanoma = test system: UACC-62 melanoma
SF-268 CNS = test system: SF-268 CNS
M14 melanoma = test system: M14 melanoma
MOLT-4 leukemia = test system: MOLT-4 leukemia
HOP-92 NSCLC = test system: HOP-92 NSCLC

Compound `O=C(COc1cccc(/C=C2\COc3ccccc3C2=O)c1)Nc1nccs1` has a GI50 (HCT-116 colon) of 1.76 µM, a TGI (HCT-116 colon) of 3.15 µM and a GI50 (SK-MEL-2 melanoma) of 1.88 µM. For the same compound, the TGI (SK-MEL-2 melanoma) was 5.05 µM, the GI50 (SF-295 CNS) was 1.73 µM and the TGI (SF-295 CNS) was 3.26 µM. It also gave a GI50 (PC-3 prostate) of 1.37 µM, a TGI (PC-3 prostate) of 3.46 µM and a GI50 (NCI-H226 lung) of 4.62 µM. It also gave a TGI (NCI-H226 lung) of 25.1 µM, a GI50 (HS 578T breast) of 2.67 µM and a TGI (HS 578T breast) of 10.9 µM. For the same compound, the GI50 (SR leukemia) was 1.03 µM, the TGI (SR leukemia) was 2.76 µM and the GI50 (CCRF-CEM leukemia) was 1.63 µM. For the same compound, the TGI (CCRF-CEM leukemia) was 4.91 µM, the GI50 (OVCAR-4 ovarian) was 3.99 µM and the TGI (OVCAR-4 ovarian) was 14.3 µM. The GI50 (SW-620 colon) was 1.97 µM, the TGI (SW-620 colon) was 3.98 µM and the GI50 (SK-MEL-28 melanoma) was 2.42 µM. The TGI (SK-MEL-28 melanoma) was 5.44 µM, the GI50 (OVCAR-8 ovarian) was 3.4 µM and the TGI (OVCAR-8 ovarian) was 11.2 µM. The GI50 (OVCAR-3 ovarian) was 2.03 µM, the TGI (OVCAR-3 ovarian) was 3.51 µM and the GI50 (NCI-H23 lung) was 1.95 µM. It also gave a TGI (NCI-H23 lung) of 3.94 µM, a GI50 (TK-10 renal) of 3.05 µM and a TGI (TK-10 renal) of 5.52 µM. For the same compound, the GI50 (SF-539 CNS) was 14.7 µM, the TGI (SF-539 CNS) was 31.2 µM and the GI50 (UO-31 renal) was 1.52 µM. The TGI (UO-31 renal) was 2.91 µM, the GI50 (NCI/ADR-RES ovarian) was 4.97 µM and the TGI (NCI/ADR-RES ovarian) was 21.8 µM. The GI50 (RPMI-8226 leukemia) was 1.29 µM, the TGI (RPMI-8226 leukemia) was 3.69 µM and the GI50 (786-0 renal) was 2.05 µM. The TGI (786-0 renal) was 4.14 µM, the GI50 (COLO 205 colon) was 2.26 µM and the TGI (COLO 205 colon) was 5.24 µM. The GI50 (SK-MEL-5 melanoma) was 5.27 µM, the TGI (SK-MEL-5 melanoma) was 19.5 µM and the GI50 (K-562 leukemia) was 1.44 µM. It also gave a TGI (K-562 leukemia) of 29.2 µM, a GI50 (LOX IMVI melanoma) of 1.82 µM and a TGI (LOX IMVI melanoma) of 3.4 µM. It also gave a GI50 (OVCAR-5 ovarian) of 2.65 µM, a TGI (OVCAR-5 ovarian) of 10.1 µM and a GI50 (MDA-MB-231 breast) of 3.55 µM. It also gave a TGI (MDA-MB-231 breast) of 17 µM, a GI50 (U251 CNS) of 1.73 µM and a TGI (U251 CNS) of 3.11 µM. The GI50 (SN12C renal) was 2.08 µM, the TGI (SN12C renal) was 5.25 µM and the GI50 (SK-OV-3 ovarian) was 17.4 µM. It also gave a TGI (SK-OV-3 ovarian) of 31.1 µM, a GI50 (EKVX NSCLC) of 4.11 µM and a TGI (EKVX NSCLC) of 17.1 µM. For the same compound, the GI50 (HCT-15 colon) was 3.11 µM, the TGI (HCT-15 colon) was 10.2 µM and the GI50 (SNB-75 CNS) was 12.2 µM. For the same compound, the TGI (SNB-75 CNS) was 24.6 µM, the GI50 (NCI-H460 lung) was 6.92 µM and the TGI (NCI-H460 lung) was 31.6 µM. For the same compound, the GI50 (HCC-2998 colon) was 1.95 µM, the TGI (HCC-2998 colon) was 3.48 µM and the GI50 (SNB-19 CNS) was 9.93 µM. It also gave a TGI (SNB-19 CNS) of 22.1 µM, a GI50 (NCI-H522 lung) of 1.52 µM and a TGI (NCI-H522 lung) of 3.19 µM. The GI50 (A549 NSCLC) was 2.41 µM, the TGI (A549 NSCLC) was 6.22 µM and the GI50 (UACC-257 melanoma) was 2.06 µM. For the same compound, the TGI (UACC-257 melanoma) was 5.28 µM, the GI50 (CAKI-1 renal) was 1.61 µM and the TGI (CAKI-1 renal) was 3.56 µM. It also gave a GI50 (MALME-3M melanoma) of 1.82 µM, a TGI (MALME-3M melanoma) of 3.49 µM and a GI50 (HT29 colon) of 1.94 µM. It also gave a TGI (HT29 colon) of 3.72 µM, a GI50 (MCF7 breast) of 1.24 µM and a TGI (MCF7 breast) of 5.69 µM. The GI50 (HL-60(TB) leukemia) was 1.59 µM, the TGI (HL-60(TB) leukemia) was 3.44 µM and the GI50 (T-47D breast) was 3.13 µM. It also gave a TGI (T-47D breast) of 12.5 µM, a GI50 (KM12 colon) of 1.71 µM and a TGI (KM12 colon) of 3.15 µM. The GI50 (HOP-62 NSCLC) was 4.11 µM, the TGI (HOP-62 NSCLC) was 15.9 µM and the GI50 (MDA-MB-435) was 2.51 µM. For the same compound, the TGI (MDA-MB-435) was 7.53 µM, the GI50 (ACHN renal) was 1.86 µM and the TGI (ACHN renal) was 3.55 µM. It also gave a GI50 (DU-145 prostate) of 1.96 µM, a TGI (DU-145 prostate) of 3.37 µM and a GI50 (A498 renal) of 15.7 µM. The TGI (A498 renal) was 29.2 µM, the GI50 (UACC-62 melanoma) was 1.69 µM and the TGI (UACC-62 melanoma) was 3.76 µM. The GI50 (SF-268 CNS) was 1.95 µM, the TGI (SF-268 CNS) was 3.69 µM and the GI50 (M14 melanoma) was 1.85 µM. The TGI (M14 melanoma) was 3.71 µM.

`CC(=O)O[C@H]1CC[C@]2(C)[C@H]3CC[C@@H]4[C@H]5[C@H](C(C)C)CC[C@]5(C(=O)OCC(CO)(CO)N=C(N)N)CC[C@@]4(C)[C@]3(C)CC[C@H]2C1(C)C` was tested, and the GI50 (SF-295 CNS) was 1.86 µM, the TGI (SF-295 CNS) was 3.79 µM and the GI50 (MOLT-4 leukemia) was 2.1 µM. For the same compound, the TGI (MOLT-4 leukemia) was 4.83 µM, the GI50 (PC-3 prostate) was 1.59 µM and the TGI (PC-3 prostate) was 3.09 µM. For the same compound, the GI50 (HS 578T breast) was 2.05 µM, the TGI (HS 578T breast) was 5.04 µM and the GI50 (SR leukemia) was 2.11 µM. For the same compound, the TGI (SR leukemia) was 4.61 µM, the GI50 (CCRF-CEM leukemia) was 2.24 µM and the TGI (CCRF-CEM leukemia) was 5.51 µM. For the same compound, the GI50 (OVCAR-4 ovarian) was 1.68 µM, the TGI (OVCAR-4 ovarian) was 3.32 µM and the GI50 (OVCAR-8 ovarian) was 2.32 µM. It also gave a TGI (OVCAR-8 ovarian) of 5.45 µM, a GI50 (OVCAR-3 ovarian) of 1.67 µM and a TGI (OVCAR-3 ovarian) of 3.2 µM. For the same compound, the GI50 (HOP-92 NSCLC) was 1.48 µM, the TGI (HOP-92 NSCLC) was 2.93 µM and the GI50 (TK-10 renal) was 1.67 µM. The TGI (TK-10 renal) was 3.12 µM, the GI50 (SF-539 CNS) was 1.83 µM and the TGI (SF-539 CNS) was 3.34 µM. It also gave a GI50 (NCI/ADR-RES ovarian) of 2.23 µM, a TGI (NCI/ADR-RES ovarian) of 5.17 µM and a GI50 (RPMI-8226 leukemia) of 2.07 µM. It also gave a TGI (RPMI-8226 leukemia) of 4.81 µM, a GI50 (COLO 205 colon) of 1.88 µM and a TGI (COLO 205 colon) of 3.55 µM. It also gave a GI50 (OVCAR-5 ovarian) of 1.67 µM, a TGI (OVCAR-5 ovarian) of 3.09 µM and a GI50 (SK-OV-3 ovarian) of 2 µM. For the same compound, the TGI (SK-OV-3 ovarian) was 3.96 µM, the GI50 (EKVX NSCLC) was 1.8 µM and the TGI (EKVX NSCLC) was 3.53 µM. For the same compound, the GI50 (HCT-15 colon) was 1.79 µM, the TGI (HCT-15 colon) was 3.71 µM and the GI50 (SNB-75 CNS) was 1.57 µM. For the same compound, the TGI (SNB-75 CNS) was 3.23 µM, the GI50 (NCI-H522 lung) was 1.6 µM and the TGI (NCI-H522 lung) was 3.16 µM. It also gave a GI50 (A549 NSCLC) of 1.71 µM, a TGI (A549 NSCLC) of 3.28 µM and a GI50 (UACC-257 melanoma) of 1.82 µM. For the same compound, the TGI (UACC-257 melanoma) was 3.97 µM, the GI50 (CAKI-1 renal) was 1.46 µM and the TGI (CAKI-1 renal) was 2.98 µM. The GI50 (HT29 colon) was 1.75 µM, the TGI (HT29 colon) was 3.29 µM and the GI50 (HL-60(TB) leukemia) was 1.79 µM. The TGI (HL-60(TB) leukemia) was 4.26 µM, the GI50 (T-47D breast) was 1.51 µM and the TGI (T-47D breast) was 2.91 µM. For the same compound, the GI50 (KM12 colon) was 1.75 µM, the TGI (KM12 colon) was 3.36 µM and the GI50 (HOP-62 NSCLC) was 1.82 µM. For the same compound, the TGI (HOP-62 NSCLC) was 3.56 µM, the GI50 (MDA-MB-435) was 1.64 µM and the TGI (MDA-MB-435) was 3.11 µM. The GI50 (ACHN renal) was 1.8 µM, the TGI (ACHN renal) was 3.26 µM and the GI50 (DU-145 prostate) was 1.7 µM. The TGI (DU-145 prostate) was 3.2 µM, the GI50 (A498 renal) was 1.86 µM and the TGI (A498 renal) was 3.67 µM.
